Patent publication US8859620B2, “Phthalanilate compounds and methods of use” (University of Notre Dame du Lac, priority 2009, dated 2014)
Values after ≈ are worked out from the molar mass of the structure shown. Where two headings read alike, the source gives them in different places.

Experiments:
[1] = molecular target: OXA-10 (class D β-lactamase) (Pseudomonas aeruginosa, UniProt P14489); test: β-Lactamase assay (nitrocefin colour change), OXA-10; assay type: biochemical; conditions: for OXA-10: Table 10, class symbols x/xx/xxx, key not given; for IC50: nitrocefin 100 μM, 10 nM enzyme, 5 min pre-incubation, read-out: IC50s OXA-10
Description: (§1) β-Lactamase Assays (TEM-1, P99, and OXA-10): The activity of the compounds of the invention (inhibitors) toward β-lactamases was evaluated using 96 well plates. The reaction mixture included 10 mM sodium phosphate, pH 7.0, 150 mM sodium chloride, 0.01% Triton X-100, 100 μM nitrocefin, 10 nM of β-lactamases (class A: TEM-1; class C: P99, or class D: OXA-10), and variable concentrations of the inhibitors in a total volume of 100 μL. β-Lactamases were pre-incubated with the compounds at room temperature for 5 minutes, and the assay was initiated by the addition of nitrocefin. The inhibition of the enzyme activity by the compounds was determined by monitoring color change (from yellow to red) of nitrocefin after 20 minutes. Stock solutions of the compounds were prepared in dimethyl sulfoxide (DMSO). No more than 5% DMSO was present in assays, unless noted otherwise. B1aR Assay: The surface domain of B1aR (1 μM) was added to each inhibitor (at various concentrations) in 100 mM sodium phosphate, 50 mM sodium bicarbonate, at pH 7.0. The reaction mixtures were incubated at room temperature for 20 minutes. BOCILLIN FL, a fluorogenic ligand, was added to a concentration of 20 μM in a final volume of 20 μL. The mixtures were incubated at 37° C. for 5 minutes, at which point the reactions were quenched by the addition of 15 μL of the SDS sample buffer (125 mM Tris, 4% SDS, 20% glycerol, 2% 2-mercaptoethanol, pH 6.8), and were boiled for 4 minutes. The samples were loaded onto 15% SDS-PAGE, the gel was developed and scanned using a Storm 840® Fluorimager. The fluorescent bands of BOCILLIN FL-labeled B1aR^S were analyzed by Image Quant 5.2 software. PBP2 Assay: The PBP2 assay was performed according to the methods of Villegas-Esterada et al. (J. Am. Chem. Soc. 2008, 130, 9212-9213).

[2] = tested on: Escherichia coli ATCC 29194; test: MIC, Table 12; assay type: cell-based; conditions: ATCC29194, Muller-Hinton II Broth
[3] = molecular target: P99 (class C β-lactamase) (Enterobacter cloacae, UniProt P05364); test: β-Lactamase assay (nitrocefin colour change), P99; assay type: biochemical; conditions: for P99: Table 10, class symbols x/xx/xxx, key not given; for IC50: nitrocefin 100 μM, 10 nM enzyme, 5 min pre-incubation, read-out: IC50s P99
Description: as §1

[4] = tested on: Klebsiella pneumonia ATCC 33495; test: MIC, Table 12; assay type: cell-based; conditions: Klebsiella pneumoniae, ATCC33495, Muller-Hinton II Broth
Description: (§2) Table 12 illustrates the results and the minimal inhibitory concentration (MIC) for S. aureus, Enterococcus faecalis, Pseudomonas aeruginosa, Klebsiella pneumonia, and Proteus mirabilis. The inoculum is about 1.5×10^5 CFU/mL. The minimal inhibitory concentrations (MIC) were done in Muller-Hinton II Broth with the exception of Enterococcus faecalis ATCC 29212, which was done in Brain Heart Infusion Broth. The concentration of DMSO at 200 μg/mL was 10%.

[5] = tested on: Enterococcus faecalis ATCC 29212; test: MIC, Table 12; assay type: cell-based
Description: as §2

[6] = tested on: Staphylococcus aureus (COLVA); test: MIC, Table 12; assay type: cell-based
Description: as §2

[7] = tested on: Staphylococcus aureus NRS100 (COL); test: MIC, Table 12; assay type: cell-based
Description: as §2

[8] = tested on: Staphylococcus aureus NRS1 (Mec^r. Vani); test: MIC, Table 12; assay type: cell-based
Description: as §2

[9] = tested on: Pseudomonas aeruginosa ATCC 27853; test: MIC, Table 12; assay type: cell-based; conditions: ATCC27853, Muller-Hinton II Broth
Description: as §2

[10] = tested on: Proteus mirabilis ATCC 35659; test: MIC, Table 12; assay type: cell-based; conditions: ATCC35659, Muller-Hinton II Broth
Description: as §2

[11] = tested on: Staphylococcus aureus ATCC 29213; test: MIC, Table 12; assay type: cell-based
Description: as §2

[12] = molecular target: TEM-1 (class A β-lactamase) (Escherichia coli, UniProt P62593); test: β-Lactamase assay (nitrocefin colour change), TEM-1; assay type: biochemical; conditions: for TEM-1: Table 10, class symbols x/xx/xxx, key not given
Description: as §1

surface domain of B1aR = surface domain of B1aR (Staphylococcus aureus, UniProt P18357); test: B1aR assay (BOCILLIN FL labeling, SDS-PAGE); assay type: binding, Staphylococcus aureus (MRSA); conditions: Table 10; class symbols x/xx/xxx, key not given
Description: as §1

S. aureus NRS100 (Mec^R) = test: MIC against S. aureus NRS100 (Table 14); assay type: cell-based, Staphylococcus aureus; conditions: Staphylococcus aureus, compounds dissolved in DMSO or 1% sodium carbonate, read-out: MIC
Description: The recited compounds were dissolved in DMSO or in 1% sodium carbonate and transferred into micro titer plate to final concentration of 1000 μg/mL.

PBP2a = PBP2a (Staphylococcus aureus, UniProt P07944); test: PBP2 assay (Villegas-Esterada et al.); assay type: biochemical; conditions: Table 10
Description: as §1

[13] = tested on: methicillin-resistant strains of S. aureus; test: MIC against methicillin-resistant S. aureus (Table 15); assay type: cell-based; conditions: Staphylococcus aureus, dissolved in 100% DMSO, diluted into Mueller Hinton II Broth to final 16 μg/mL
From the text: Table 15 illustrates the inhibition of methicillin-resistant strains of S. aureus by selected compounds of the invention.

[14] = ATCC29212, Enterococcus faecalis ATCC 29212, Brain Heart Infusion Broth, inoculum about 1.5×10^5 CFU/mL, read-out: MIC
[15] = Staphylococcus aureus NRS100 (COL), Muller-Hinton II Broth, read-out: MIC
[16] = Staphylococcus aureus NRS1 (Mec^r. Vani), Muller-Hinton II Broth, read-out: MIC
[17] = ATCC29213, Staphylococcus aureus ATCC 29213, Muller-Hinton II Broth, read-out: MIC

Sequence of surface domain of B1aR (P18357 331-585): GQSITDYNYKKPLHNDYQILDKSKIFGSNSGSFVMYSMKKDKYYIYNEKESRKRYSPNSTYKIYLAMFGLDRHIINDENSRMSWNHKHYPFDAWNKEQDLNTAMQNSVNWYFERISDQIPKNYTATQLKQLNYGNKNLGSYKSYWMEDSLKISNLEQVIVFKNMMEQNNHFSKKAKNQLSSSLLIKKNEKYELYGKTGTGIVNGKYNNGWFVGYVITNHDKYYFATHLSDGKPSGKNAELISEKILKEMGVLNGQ
Sequence of TEM-1 (class A β-lactamase) (P62593 24-286 limits assumed): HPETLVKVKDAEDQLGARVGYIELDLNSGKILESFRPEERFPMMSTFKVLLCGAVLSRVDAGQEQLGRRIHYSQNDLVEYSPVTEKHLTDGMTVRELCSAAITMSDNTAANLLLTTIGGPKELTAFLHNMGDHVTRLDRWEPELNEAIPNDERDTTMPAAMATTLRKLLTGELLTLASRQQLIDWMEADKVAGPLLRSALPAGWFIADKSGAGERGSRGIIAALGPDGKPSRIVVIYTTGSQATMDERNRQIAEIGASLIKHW
Sequence of OXA-10 (class D β-lactamase) (P14489 20-266, species assumed): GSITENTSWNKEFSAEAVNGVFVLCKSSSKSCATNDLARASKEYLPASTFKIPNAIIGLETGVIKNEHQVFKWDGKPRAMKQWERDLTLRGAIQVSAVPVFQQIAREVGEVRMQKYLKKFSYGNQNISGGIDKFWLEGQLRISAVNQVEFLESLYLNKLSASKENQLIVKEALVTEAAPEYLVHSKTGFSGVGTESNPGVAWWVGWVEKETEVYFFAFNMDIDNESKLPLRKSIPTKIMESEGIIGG
Sequence of P99 (class C β-lactamase) (P05364 21-381): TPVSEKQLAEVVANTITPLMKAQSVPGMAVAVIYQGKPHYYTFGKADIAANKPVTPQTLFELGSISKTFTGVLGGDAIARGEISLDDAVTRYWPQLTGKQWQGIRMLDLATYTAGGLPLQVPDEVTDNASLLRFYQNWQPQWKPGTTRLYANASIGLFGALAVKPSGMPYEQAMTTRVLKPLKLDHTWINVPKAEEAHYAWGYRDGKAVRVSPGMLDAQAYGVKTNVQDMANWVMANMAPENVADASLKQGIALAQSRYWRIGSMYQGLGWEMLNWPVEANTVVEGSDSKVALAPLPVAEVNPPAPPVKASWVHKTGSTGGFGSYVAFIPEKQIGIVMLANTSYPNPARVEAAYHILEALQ
Sequence of PBP2a (P07944 whole entry): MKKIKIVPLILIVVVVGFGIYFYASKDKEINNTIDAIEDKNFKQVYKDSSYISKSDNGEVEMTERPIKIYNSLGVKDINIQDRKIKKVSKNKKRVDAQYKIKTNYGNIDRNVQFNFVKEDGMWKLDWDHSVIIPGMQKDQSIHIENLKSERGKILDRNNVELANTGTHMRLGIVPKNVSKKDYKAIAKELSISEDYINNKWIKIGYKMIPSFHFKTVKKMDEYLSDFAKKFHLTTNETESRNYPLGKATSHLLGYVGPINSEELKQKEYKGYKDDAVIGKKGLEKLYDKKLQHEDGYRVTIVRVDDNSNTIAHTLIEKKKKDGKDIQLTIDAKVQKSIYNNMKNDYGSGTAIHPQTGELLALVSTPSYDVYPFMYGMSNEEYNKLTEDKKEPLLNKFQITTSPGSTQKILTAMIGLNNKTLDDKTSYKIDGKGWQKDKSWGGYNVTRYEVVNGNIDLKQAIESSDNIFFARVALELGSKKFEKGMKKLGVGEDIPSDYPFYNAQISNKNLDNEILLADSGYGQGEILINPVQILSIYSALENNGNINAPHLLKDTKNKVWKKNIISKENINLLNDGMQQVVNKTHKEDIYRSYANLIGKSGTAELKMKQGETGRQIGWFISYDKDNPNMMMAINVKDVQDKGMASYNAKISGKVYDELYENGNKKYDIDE

| SMILES | OXA-10 [1] | IC50 [1] [µM] | MIC [2] [µg/mL] | P99 [3] | IC50 [3] [µM] | MIC [4] [µg/mL] | MIC [5, 14] [µg/mL] | MIC ([6]; Staphylococcus aureus) [µg/mL] | MIC [7, 15] [µg/mL] | MIC [8, 16] [µg/mL] | MIC [9] [µg/mL] | MIC [10] [µg/mL] | MIC [11, 17] [µg/mL] | IC50 [12] [µM] | TEM-1 [12] | BlaR (surface domain of B1aR) | MIC (S. aureus NRS100 (Mec^R)) [µg/mL] | also measured |
| --- | --- | --- | --- | --- | --- | --- | --- | --- | --- | --- | --- | --- | --- | --- | --- | --- | --- | --- |
| CCCCCCCCOc1ccc(NC(=O)c2c(Cl)c(Cl)c(Cl)c(Cl)c2C(=O)O)cc1 [Compound 265] | xxx | 9.9 ± 0.8 | 200 (≈ 394 µM) | xxx | 10.3 ± 0.3 | 200 (≈ 394 µM) | 6 (≈ 11.8 µM) | 6 (≈ 11.8 µM) | 6 (≈ 11.8 µM) | 6 (≈ 11.8 µM) | 200 (≈ 394 µM) | 200 (≈ 394 µM) | 6 (≈ 11.8 µM) | 3.6 ± 0.5 | xxx |  |  |  |
| CCCCCCCCOc1ccc(NC(=O)c2c(Br)c(Br)c(Br)c(Br)c2C(=O)O)cc1 [Compound 274] | xxx | 5.5 ± 0.5 | 400 (≈ 584 µM) | xxx | 3.1 ± 0.5 | 200 (≈ 292 µM) | 100 (≈ 146 µM) | 3 (≈ 4.38 µM) | 3 (≈ 4.38 µM) | 3 (≈ 4.38 µM) | 200 (≈ 292 µM) | 400 (≈ 584 µM) | 3 (≈ 4.38 µM) | 2.4 ± 0.1 | xxx |  |  |  |
| Cc1onc(-c2ccccc2)c1C(=O)N[C@@H]1C(=O)N2[C@@H]1SC(C)(C)[C@@H]2C(=O)O [Oxaxillian, reference compound] |  |  |  |  |  |  |  |  |  |  |  |  |  |  |  |  |  | MIC ([5]; Enterococcus faecalis ATCC 29212, Brain Heart Infusion Broth, inoculum about 1.5×10^5 CFU/mL): 8 µg/mL (≈ 19.9 µM); MIC ([6]; Staphylococcus aureus (COLVA), Muller-Hinton II Broth): 500 µg/mL (≈ 1250 µM); MIC ([7]; Staphylococcus aureus NRS100 (COL), Muller-Hinton II Broth): 500 µg/mL (≈ 1250 µM); MIC ([8]; Staphylococcus aureus NRS1 (Mec^r. Vani), Muller-Hinton II Broth): 500 µg/mL (≈ 1250 µM); MIC ([11]; Staphylococcus aureus ATCC 29213, Muller-Hinton II Broth): <0.5 µg/mL |
| O=C(O)c1c(Br)c(Br)c(Br)c(Br)c1C(=O)Nc1ccc(OCc2cccc(OC(F)(F)F)c2)c(Cl)c1 [Compound 420] | xxx | 8.4 ± 1.1 |  | xx | 6.9 ± 1.5 |  |  |  |  |  |  |  |  | 1.6 ± 0.1 | xxx | xxx | 8 (≈ 10.2 µM) | PBP2a* (inhibitory concentration) (PBP2a): xxx; MIC [13]: 4 µg/mL (≈ 5.12 µM) |
| O=C(O)c1c(Cl)c(Cl)c(Cl)c(Cl)c1C(=O)Nc1ccc(OCc2ccccc2)c(Cl)c1 [Compound 253] | xxx | 222 ± 17 | 400 (≈ 770 µM) | xxx | 105 ± 8.7 | 200 (≈ 385 µM) | 200 (≈ 385 µM) | 50 (≈ 96.2 µM) | 50 (≈ 96.2 µM) | 50 (≈ 96.2 µM) | 200 (≈ 385 µM) | 400 (≈ 770 µM) | 50 (≈ 96.2 µM) | 32.3 ± 5.9 | xxx | xx | > 16 |  |
| O=C(O)c1c(Br)c(Br)c(Br)c(Br)c1C(=O)Nc1ccc(OCc2ccccc2)c(Cl)c1 [Compound 239] |  |  | 400 (≈ 574 µM) |  |  | 200 (≈ 287 µM) | 200 (≈ 287 µM) | 25 (≈ 35.8 µM) | 100 (≈ 143 µM) | 50 (≈ 71.7 µM) | 200 (≈ 287 µM) | 400 (≈ 574 µM) | 25 (≈ 35.8 µM) |  |  |  |  |  |
| CN[C@H](CC(C)C)C(=O)N[C@H]1C(=O)N[C@@H](CC(N)=O)C(=O)N[C@H]2C(=O)N[C@H]3C(=O)N[C@H](C(=O)N[C@H](C(=O)O)c4cc(O)cc(O)c4-c4cc3ccc4O)[C@H](O)c3ccc(c(Cl)c3)Oc3cc2cc(c3O[C@@H]2O[C@H](CO)[C@@H](O)[C@H](O)[C@H]2O[C@H]2C[C@](C)(N)[C@H](O)[C@H](C)O2)Oc2ccc(cc2Cl)[C@H]1O [Vancomycin, reference compound] |  |  |  |  |  |  |  | 1000 (≈ 690 µM) |  |  |  |  |  |  |  |  |  | MIC ([5]; Enterococcus faecalis, ATCC29212): 4 µg/mL (≈ 2.76 µM); MIC ([7]; Staphylococcus aureus, NRS100): 1 µg/mL (≈ 0.69 µM); MIC ([8]; Staphylococcus aureus, NRS1): 4 µg/mL (≈ 2.76 µM); MIC ([11]; Staphylococcus aureus, ATCC29213): 1 µg/mL (≈ 0.69 µM) |
| O=C(O)c1c(Br)c(Br)c(Br)c(Br)c1C(=O)Nc1ccc(Oc2cc(C(F)(F)F)cc(C(F)(F)F)c2)cc1 [Compound 414] | xxx | 19.5 ± 2 |  | xxx | 12 ± 0.5 |  |  |  |  |  |  |  |  | 4.5 ± 0.4 | xxx | xxx | 4 (≈ 5.1 µM) | PBP2a* (inhibitory concentration) (PBP2a): xxx; MIC [13]: 4 µg/mL (≈ 5.1 µM) |
